What was measured:
[1] = test system: PS-2 splicing variants (5′-terminal fragment); experiment: Detection of PS-2 splicing variants in human nerve cells after β-amyloid stimulation or hydrogen peroxide addition (RT-PCR, gel electrophoresis); assay type: cell-based; conditions: SK-N-SH cells; Aβ25-35 0.5 or 5 μM for 16 hours; H2O2 44 or 440 μM for 2 hours; FIG. 2
Protocol: After culturing human neuroblastoma SK-N-SH cells (ATCC HTB-11) in α-MEM medium (α-Minimum Essential Medium; available from GIBCO CO.) containing 10% fetal bovine serum in a 10 cm diameter culture plates at 37° C. for about 48 hours in a CO2 incubator to a confluent state, the medium was replaced with the same medium not containing fetal bovine serum followed by additional culturing for about 2 hours.
The above cultured cells were additionally cultured under the conditions (i) to (iv) indicated below (culturing was continued for an additional 16 hours under the same conditions as above for the control).
(iii) β-amyloid stimulation: Aβ25-35 (available from Sigma Co.) was added to the medium to a final concentration of 0.5 μM or 5 μM followed by incubating for 16 hours. […]
Using, the RNA (total RNA, 1 μg) obtained in section (1) above as template, this RNA was allowed to react for 1 hour at 42° C. in 0.05 ml of a buffer (0.05 M Tris-HCl, pH 8.3, 0.075 MN KCl, 0.003 M MgCl2, DTT and 0.0002 M deoxynucleotides) containing oligo dT primer (50 pmole), random oligonucleotide (5 pmole) and reverse transcriptase (available from Promega Co., Moloney leukaemia virus reverse transcriptase) (200 units) to synthesize single-strand cDNA. Using the resulting single-strand cDNA, splicing variants were detected by polymerase chain reaction (PCR) in the manner described below. […]

[2] = test system: PS-2 splicing variant lacking exon 5; experiment: Effect of drug on induction of expression of PS-2 splicing variants in human nerve cells under hypoxic conditions (RT-PCR, gel electrophoresis); assay type: cell-based; conditions: human neuroblastoma SK-N-SH cells, low oxygen 16 hours; cycloheximide 0.2 or 1 μg/ml, N-acetyl-L-cysteine 2 or 10 μM, diphenylene iodonium chloride 5 or 20 μM; FIG. 5
Protocol: Namely, after culturing in α-MEM medium containing 10% fetal bovine serum in a CO2 incubator (oxygen concentration: 20%) at 37° C. to a confluent state (about 48 hours), the medium was replaced with the same medium not containing fetal bovine serum. […] The culture was then transferred to a low oxygen incubator (oxygen concentration: 1% or less) and cultured for an additional 16 hours.
Each of the cells cultured in the manner described above were collected and RNA (total RNA) was prepared from the cells according to the same method as section (1) of the above Example 1.
Detection of PS-2 splicing variants was performed according to the same method as in section (2) of the above Example 1 using the RNA (total RNA) obtained in section (1) above. Namely, single-strand cDNA was prepared using the above RNA as template, and a first round of PCR was performed using the resulting cDNA as template to amplify the DNA fragment containing the entire length of the PS-2 coding region. PS251 (SEQ.ID.NO: 7) (sense primer) and PS231 (SEQ.ID.NO: 10) (anti-sense primer) were used as PCR primers.
After diluting the reaction liquid and using 1 μl thereof as template, a second round of PCR was performed to amplify the DNA fragment containing the 5′-terminal of the PS-2 coding region. PS251 (SEQ.ID.NO: 7) (sense primer) and PS233 (SEQ.ID.NO: 9) (anti-sense primer) were used as PCR primers. Polyacrylamide gel electrophoresis was performed on the resulting PCR product to investigate the presence or absence of fragments derived from splicing variants (such as a fragment having a length of about 640 bases originated from a splicing variant lacking exon 5).

Row | Compound | bands not observed in the control, PCR of the 5′-terminal fragment of PS-2 (induced splicing variants) [1] | expression of a splicing variant lacking exon 5 induced by hypoxic treatment [2]
1 | OO [hydrogen peroxide] | three bands not observed in the control | 
2 | β-amyloid: partial peptide consisting of the 25th to 35th amino acid residues of β-amyloid protein (GSNKGAIIGLM; Amyloid-beta protein 42; UniProt P05067 696-706, looked up, fragment) | two bands each not observed in the control | 
3 | C[C@@H]1C[C@@H]([C@H](O)CC2CC(=O)NC(=O)C2)C(=O)[C@@H](C)C1 [cycloheximide] |  | inhibited
4 | CC(=O)N[C@@H](CS)C(=O)O [N-acetyl-L-cysteine] |  | inhibited
5 | c1ccc2c(c1)[I+]c1ccccc1-2 [diphenylene iodonium chloride] |  | inhibited
